In patent US20240109918A1, “HETEROCYCLIC COMPOUNDS AND USES THEREOF” (Kumquat Biosciences Inc., priority 2022, published 2024) one finds IC50 data, which are given here for twelve compounds.

What is called IC50 is the midpoint of a concentration-inhibition curve. Read a high IC50 as weaker potency.

Molecules are shown by their SMILES.

One experiment concerns the target T1, KRASG12D (Homo sapiens, UniProt P01116, G12D).
T1 construct: made in house; host or cells: E. coli BL21 (DE3)
Nature of the experiment: Bio-Biochem-PPI-HTRF Ras-SOS1 interaction assay (KRAS G12D). The format is biochemical. Particulars: 5 nM. The method, boiled down:
(§1)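 HTRF measurement of GST-K-Ras (wt or G12D) binding to His-hSOS1, via anti-GST-Eu(K) donor and anti-6His-XL665 acceptor, in HEPES pH 7.4 buffer with NaCl, DTT, BSA and Igepal. Read after ≥10 min; compounds in duplicate from 10 μM down to 0.01 μM. IC50 from 665/620 nm ratio.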

The target of a further experiment is T2, KRASwt (Homo sapiens, UniProt P01116).
T2 construct: made in house; host or cells: E. coli BL21 (DE3)
In words: Bio-Biochem-PPI-HTRF Ras-SOS1 interaction assay (KRAS wt). The format is biochemical. The note with it: 5 nM. The method, boiled down:
as §1
A general note: In TR-FRET formats the signal depends on donor and acceptor labels being close together.

T2 sequence (P01116 1-188 isoform P01116-2): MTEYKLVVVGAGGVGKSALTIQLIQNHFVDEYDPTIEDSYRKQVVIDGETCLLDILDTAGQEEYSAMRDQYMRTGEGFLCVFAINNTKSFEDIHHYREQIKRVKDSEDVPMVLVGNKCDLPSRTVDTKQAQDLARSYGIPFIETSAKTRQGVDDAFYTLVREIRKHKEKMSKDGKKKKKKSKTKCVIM
T1 sequence (P01116 1-188 isoform P01116-2 G12D): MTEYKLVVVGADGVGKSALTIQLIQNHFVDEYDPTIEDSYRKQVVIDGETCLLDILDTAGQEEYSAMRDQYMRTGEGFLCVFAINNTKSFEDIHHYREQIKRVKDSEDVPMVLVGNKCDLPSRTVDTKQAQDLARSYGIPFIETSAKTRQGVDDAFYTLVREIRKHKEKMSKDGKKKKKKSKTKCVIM

In the case of `N#Cc1c(N)sc2c(F)ccc(-c3c(Cl)cc4c(N5CCCCC6(CN(C=O)C6)C5)nc(OC[C@@]56CCCN5C[C@H](F)C6)nc4c3F)c12` [compound 271, 2-amino-4-(6-chloro-8-fluoro-2-(((2R,7aS)-2-fluorotetrahydro-1H-pyrrolizin-7a(5H)-yl)methoxy)-4-(2-formyl-2,6-diazaspiro[3.6]decan-6-yl)quinazolin-7-yl)-7-fluorobenzo[b]thiophene-3-carbonitrile], the IC50 against KRASG12D and at KRASwt was less than 5 µM throughout.
Turning to `N#Cc1c(N)sc2c(F)ccc(-c3c(Cl)cc4c(N5CCCCC6(CN(C(=O)N7CCC7)C6)C5)nc(OC[C@@]56CCCN5C[C@H](F)C6)nc4c3F)c12` [compound 272, 2-amino-4-(4-(2-(azetidine-1-carbonyl)-2,6-diazaspiro[3.6]decan-6-yl)-6-chloro-8-fluoro-2-(((2R,7aS)-2-fluorotetrahydro-1H-pyrrolizin-7a(5H)-yl)methoxy)quinazolin-7-yl)-7-fluorobenzo[b]thiophene-3-carbonitrile], the IC50 at KRASG12D and against KRASwt was less than 5 µM each time.
In the case of `N#Cc1c(N)sc2c(F)ccc(-c3c(Cl)cc4c(N5CCCCC6(CN(C(=O)CC7COC7)C6)C5)nc(OC[C@@]56CCCN5C[C@H](F)C6)nc4c3F)c12` [compound 273, 2-amino-4-(6-chloro-8-fluoro-2-(((2R,7aS)-2-fluorotetrahydro-1H-pyrrolizin-7a(5H)-yl)methoxy)-4-(2-(2-(oxetan-3-yl)acetyl)-2,6-diazaspiro[3.6]decan-6-yl)quinazolin-7-yl)-7-fluorobenzo[b]thiophene-3-carbonitrile], the IC50 against KRASG12D and against KRASwt was less than 5 µM each time.
Take `N#Cc1c(N)sc2c(F)ccc(-c3c(Cl)cc4c(N5CCCCC6(CN(C(=O)N7CC(C#N)C7)C6)C5)nc(OC[C@@]56CCCN5C[C@H](F)C6)nc4c3F)c12` [compound 274, 1-(6-(7-(2-amino-3-cyano-7-fluorobenzo[b]thiophen-4-yl)-6-chloro-8-fluoro-2-(((2R,7aS)-2-fluorotetrahydro-1H-pyrrolizin-7a(5H)-yl)methoxy)quinazolin-4-yl)-2,6-diazaspiro[3.6]decane-2-carbonyl)azetidine-3-carbonitrile]: the IC50 at KRASG12D and on KRASwt was less than 5 µM each time.
Regarding `N#Cc1c(N)sc2c(F)ccc(-c3c(Cl)cc4c(N5CC(O)CCC6(CN(C(=O)[C@@H]7CC7(F)F)C6)C5)nc(OC[C@@]56CCCN5C[C@H](F)C6)nc4c3F)c12` (stereo partly drawn) [compound 275, 2-amino-4-(6-chloro-4-(2-((S)-2,2-difluorocyclopropane-1-carbonyl)-8-hydroxy-2,6-diazaspiro[3.6]decan-6-yl)-8-fluoro-2-(((2R,7aS)-2-fluorotetrahydro-1H-pyrrolizin-7a(5H)-yl)methoxy)quinazolin-7-yl)-7-fluorobenzo[b]thiophene-3-carbonitrile], the IC50 on KRASG12D and at KRASwt was less than 5 µM in each case.
As for `N#Cc1c(N)sc2c(F)ccc(-c3c(Cl)cc4c(N5CCCCC6(CN(C(=O)C7(C(F)F)CC7)C6)C5)nc(OC[C@@]56CCCN5C[C@H](F)C6)nc4c3F)c12` [compound 276, 2-amino-4-(6-chloro-4-(2-(1-(difluoromethyl)cyclopropane-1-carbonyl)-2,6-diazaspiro[3.6]decan-6-yl)-8-fluoro-2-(((2R,7aS)-2-fluorotetrahydro-1H-pyrrolizin-7a(5H)-yl)methoxy)quinazolin-7-yl)-7-fluorobenzo[b]thiophene-3-carbonitrile], the IC50 on KRASG12D and against KRASwt was less than 5 µM throughout.
Consider `CC1(C(=O)N2CC3(CCCCN(c4nc(OC[C@@]56CCCN5C[C@H](F)C6)nc5c(F)c(-c6ccc(F)c7sc(N)c(C#N)c67)c(Cl)cc45)C3)C2)CC1(F)F` (stereo partly drawn) [compound 277, 2-amino-4-(6-chloro-4-(2-(2,2-difluoro-1-methylcyclopropane-1-carbonyl)-2,6-diazaspiro[3.6]decan-6-yl)-8-fluoro-2-(((2R,7aS)-2-fluorotetrahydro-1H-pyrrolizin-7a(5H)-yl)methoxy)quinazolin-7-yl)-7-fluorobenzo[b]thiophene-3-carbonitrile], for which the IC50 against KRASG12D and against KRASwt was less than 5 µM in each case.
On to `N#Cc1c(N)sc2c(F)ccc(-c3c(Cl)cc4c(N5CCCCC6(CN(C(=O)C7(CN8CCOCC8)CC7)C6)C5)nc(OC[C@@]56CCCN5C[C@H](F)C6)nc4c3F)c12` [compound 278, 2-amino-4-(6-chloro-8-fluoro-2-(((2R,7aS)-2-fluorotetrahydro-1H-pyrrolizin-7a(5H)-yl)methoxy)-4-(2-(1-(morpholinomethyl)cyclopropane-1-carbonyl)-2,6-diazaspiro[3.6]decan-6-yl)quinazolin-7-yl)-7-fluorobenzo[b]thiophene-3-carbonitrile], for which the IC50 at KRASG12D and against KRASwt was less than 5 µM each time.
In the case of `N#Cc1c(N)sc2c(F)ccc(-c3c(Cl)cc4c(N5CCCCC6(CN(C(=O)C78CC(C#N)(C7)C8)C6)C5)nc(OC[C@@]56CCCN5C[C@H](F)C6)nc4c3F)c12` [compound 279, 2-amino-4-(6-chloro-4-(2-(3-cyanobicyclo[1.1.1]pentane-1-carbonyl)-2,6-diazaspiro[3.6]decan-6-yl)-8-fluoro-2-(((2R,7aS)-2-fluorotetrahydro-1H-pyrrolizin-7a(5H)-yl)methoxy)quinazolin-7-yl)-7-fluorobenzo[b]thiophene-3-carbonitrile], the IC50 at KRASG12D and against KRASwt was less than 5 µM throughout.
As for `N#Cc1c(N)sc2c(F)ccc(-c3c(Cl)cc4c(N5CCCCC6(CN(C(=O)CC7(C#N)CC7)C6)C5)nc(OC[C@@]56CCCN5C[C@H](F)C6)nc4c3F)c12` [compound 280, 2-amino-4-(6-chloro-4-(2-(2-(1-cyanocyclopropyl)acetyl)-2,6-diazaspiro[3.6]decan-6-yl)-8-fluoro-2-(((2R,7aS)-2-fluorotetrahydro-1H-pyrrolizin-7a(5H)-yl)methoxy)quinazolin-7-yl)-7-fluorobenzo[b]thiophene-3-carbonitrile], the IC50 against KRASG12D and against KRASwt was less than 5 µM each time.
For `N#Cc1c(N)sc2c(F)ccc(-c3c(Cl)cc4c(N5CCCCC6(CN(C(=O)CC78CC(F)(C7)C8)C6)C5)nc(OC[C@@]56CCCN5C[C@H](F)C6)nc4c3F)c12` [compound 282, 2-amino-4-(6-chloro-8-fluoro-4-(2-(2-(3-fluorobicyclo[1.1.1]pentan-1-yl)acetyl)-2,6-diazaspiro[3.6]decan-6-yl)-2-(((2R,7aS)-2-fluorotetrahydro-1H-pyrrolizin-7a(5H)-yl)methoxy)quinazolin-7-yl)-7-fluorobenzo[b]thiophene-3-carbonitrile], the IC50 on KRASG12D and at KRASwt was less than 5 µM in each case.
For `N#Cc1c(N)sc2c(F)ccc(-c3c(Cl)cc4c(N5CCOCC6(CN(C(=O)C(F)Cl)C6)C5)nc(OC[C@@]56CCCN5C[C@H](F)C6)nc4c3F)c12` (stereo partly drawn) [compound 283, 2-amino-4-(6-chloro-4-(2-(2-chloro-2-fluoroacetyl)-6-oxa-2,9-diazaspiro[3.6]decan-9-yl)-8-fluoro-2-(((2R,7aS)-2-fluorotetrahydro-1H-pyrrolizin-7a(5H)-yl)methoxy)quinazolin-7-yl)-7-fluorobenzo[b]thiophene-3-carbonitrile], the IC50 on KRASG12D and against KRASwt was less than 5 µM each time.
